Source: patent US20020137929A1, “1 - (3-heterocyclylphenyl) isothiourea, -isourea, -guanidine and -amidine herbicidal agents” (Intellectual Property Department, BASF Aktiengesellschaft, priority 1998, published 2002)

Key:
[1] = system: IPOHE (Morningglory, Ivyleaf); experiment: Postemergence herbicidal evaluation; assay type: in vivo, Ipomoea hederacea; conditions: postemergence
Method: (§1) In the tests, seedling plants are grown in jiffy flats for about two weeks. The test compounds are dispersed in 50/50 acetone/water mixtures containing 0.5% TWEEN®20, a polyoxyethylene sorbitan monolaurate surfactant of Atlas Chemical Industries, in sufficient quantities to provide the equivalent of about 0.0156 kg to 0.500 kg per hectare of active compound when applied to the plants through a spray nozzle operating at 40 psi for a predetermined time. After spraying, the plants are placed on greenhouse benches and are cared for in accordance with conventional greenhouse procedures. From four to five weeks after treatment, the seedling plants are examined and rated according to the rating system set forth below. Where more than one test is involved for a given compound, the data are averaged.
(§2) Plant species employed in these evaluations are reported by header abbreviation, common name and scientific name.
(§3) Results of herbicide evaluation are expressed on a rating scale (0-9). The scale is based upon a visual observation of plant stand, vigor, malformation, size, chlorosis and overall plant appearance as compared with a control.

ABUTH (Velvetleaf) = experiment: Postemergence herbicidal evaluation; assay type: in vivo, Abutilon theophrasti; conditions: postemergence
Procedure, shortened: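 Scores (0–9) reflect plant stand, vigor, malformation, size, chlorosis and general appearance relative to control, read 4 to 5 weeks after treatment and averaged where tests were repeated. Application: about 0.0156–0.500 kg/ha sprayed at 40 psi onto two-week seedlings.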

[2] = system: ECHORC (Watergrass (Calif.)); experiment: Preemergence weed control under flooded paddy conditions; assay type: in vivo, Echinochloa oryzoides; conditions: rated 3-4 weeks after treatment
Procedure, shortened: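 Ratings on a 0-9 visual scale cover stand, vigor, malformation, size, chlorosis and overall appearance relative to a control, taken three to four weeks post-treatment. Application was into flood water over freshly sown silt loam at roughly 0.0313 to 0.500 kg/ha.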

ORYSAT (Rice, Tebonnet) = experiment: Preemergence herbicidal evaluation; assay type: in vivo, Oryza sativa, (L.) Tebonnet; conditions: rated 4-5 weeks after treatment
Description: as §3
(§4) The preemergence herbicidal activity of the test compounds of the present invention is exemplified by the following tests in which the seeds of a variety of monocotyledonous and dicotyledonous plants are separately mixed with potting soil and planted on top of approximately one inch of soil in separate pint cups. After planting, the cups are sprayed with the selected aqueous acetone solution containing test compound in sufficient quantity to provide the equivalent of about 0.0156 to 0.500 kg per hectare of test compound per cup. The treated cups are then placed on greenhouse benches, watered and cared for in accordance with conventional greenhouse procedures. From four to five weeks after treatment, the tests are terminated and each cup is examined and rated according to the rating system provided in Example 37.
(§5) The compounds evaluated are reported by compound number given in Example 37.

[3] = system: CHEAL (Lambsquarters, Common); experiment: Preemergence herbicidal evaluation; assay type: in vivo, Chenopodium album; conditions: rated 4-5 weeks after treatment
Description: as §3, §4, §5

[4] = system: TRZAWR (Wheat, Winter, cv Riband); experiment: Postemergence herbicidal evaluation; assay type: in vivo, Triticum aestivum; conditions: postemergence
Method: as §1, §2, §3

[5] = system: TRZAWR (Wheat, Winter, cv Riband); experiment: Preemergence herbicidal evaluation; assay type: in vivo, Triticum aestivum; conditions: rated 4-5 weeks after treatment
Description: as §3, §4, §5

SETVI (Foxtail, Green) = experiment: Preemergence herbicidal evaluation; assay type: in vivo, Setaria viridis; conditions: rated 4-5 weeks after treatment
Description: as §3, §4, §5

ECHCG (Barnyardgrass) = experiment: Preemergence herbicidal evaluation; assay type: in vivo, Echinochloa crus-galli; conditions: rated 4-5 weeks after treatment
Description: as §3, §4, §5

[6] = system: IPOHE (Morningglory, Ivyleaf); experiment: Preemergence herbicidal evaluation; assay type: in vivo, Ipomoea hederacea; conditions: rated 4-5 weeks after treatment
Description: as §3, §4, §5

MOOVA (Monochoria) = experiment: Preemergence weed control under flooded paddy conditions; assay type: in vivo, Monochoria vaginalis; conditions: rated 3-4 weeks after treatment
Procedure, shortened: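 Values are visual 0-9 scores against a control for a preemergence application into paddy flood water at about 0.0313 to 0.500 kg/ha. Greenhouse duration was three to four weeks.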

COC(=O)COC(=O)CN1C(=O)CSC1=Nc1cc(-n2c(=O)cc(C(F)(F)F)n(C)c2=O)c(F)cc1Cl [Compound 108, 2-{{2-Chloro-5-[3,6-dihydro-3-methyl-2,6-dioxo-4-(trifluoromethyl)-1(2H)-pyrimidinyl]-4-fluorophenyl}imino}-4-oxo-3-thiazolidineacetic acid, ester with methyl glycolate]
Herbicidal rating IPOHE ([1]; rate 0.0158 kg/ha): 9.0 | Herbicidal rating IPOHE ([1]; rate 0.0315 kg/ha): 9.0 | Herbicidal rating IPOHE ([1]; rate 0.0630 kg/ha): 9.0 | Herbicidal rating ABUTH (ABUTH (Velvetleaf); rate 0.0158 kg/ha): 9.0 | Herbicidal rating ABUTH (ABUTH (Velvetleaf); rate 0.0315 kg/ha): 9.0 | Herbicidal rating ABUTH (ABUTH (Velvetleaf); rate 0.0630 kg/ha): 9.0 | ECHORC herbicidal effect rating ([2]; 0.0313 kg/ha): 0.0 | ECHORC herbicidal effect rating ([2]; 0.0625 kg/ha): 0.0 | ECHORC herbicidal effect rating ([2]; 0.1250 kg/ha): 0.0 | ECHORC herbicidal effect rating ([2]; 0.2500 kg/ha): 0.0 | Preemergence herbicidal rating ORYSAT (ORYSAT (Rice, Tebonnet); rate 0.0156 kg/ha): 0.0 | Preemergence herbicidal rating ORYSAT (ORYSAT (Rice, Tebonnet); rate 0.0313 kg/ha): 0.0 | Preemergence herbicidal rating ORYSAT (ORYSAT (Rice, Tebonnet); rate 0.0625 kg/ha): 0.0 | Preemergence herbicidal rating ORYSAT (ORYSAT (Rice, Tebonnet); rate 0.1250 kg/ha): 1.0 | Preemergence herbicidal rating ORYSAT (ORYSAT (Rice, Tebonnet); rate 0.2500 kg/ha): 5.0 | Preemergence herbicidal rating CHEAL ([3]; rate 0.0313 kg/ha): 0.0 | Preemergence herbicidal rating CHEAL ([3]; rate 0.0625 kg/ha): 9.0 | Preemergence herbicidal rating CHEAL ([3]; rate 0.1250 kg/ha): 9.0 | Preemergence herbicidal rating CHEAL ([3]; rate 0.2500 kg/ha): 9.0 | Herbicidal rating TRZAWR ([4]; rate 0.0158 kg/ha): 3.0 | Herbicidal rating TRZAWR ([4]; rate 0.0315 kg/ha): 3.5 | Herbicidal rating TRZAWR ([4]; rate 0.0630 kg/ha): 4.5 | Preemergence herbicidal rating TRZAWR ([5]; rate 0.0156 kg/ha): 0.0 | Preemergence herbicidal rating TRZAWR ([5]; rate 0.0313 kg/ha): 0.0 | Preemergence herbicidal rating TRZAWR ([5]; rate 0.0625 kg/ha): 0.0 | Preemergence herbicidal rating TRZAWR ([5]; rate 0.1250 kg/ha): 2.0 | Preemergence herbicidal rating TRZAWR ([5]; rate 0.2500 kg/ha): 5.0 | Preemergence herbicidal rating SETVI (SETVI (Foxtail, Green); rate 0.0156 kg/ha): 0.0 | Preemergence herbicidal rating SETVI (SETVI (Foxtail, Green); rate 0.0313 kg/ha): 0.0 | Preemergence herbicidal rating SETVI (SETVI (Foxtail, Green); rate 0.0625 kg/ha): 1.0 | Preemergence herbicidal rating SETVI (SETVI (Foxtail, Green); rate 0.1250 kg/ha): 7.0 | Preemergence herbicidal rating SETVI (SETVI (Foxtail, Green); rate 0.2500 kg/ha): 9.0 | Preemergence herbicidal rating ECHCG (ECHCG (Barnyardgrass); rate 0.0156 kg/ha): 0.0 | Preemergence herbicidal rating ECHCG (ECHCG (Barnyardgrass); rate 0.0313 kg/ha): 0.0 | Preemergence herbicidal rating ECHCG (ECHCG (Barnyardgrass); rate 0.0625 kg/ha): 0.0 | Preemergence herbicidal rating ECHCG (ECHCG (Barnyardgrass); rate 0.1250 kg/ha): 0.0 | Preemergence herbicidal rating ECHCG (ECHCG (Barnyardgrass); rate 0.2500 kg/ha): 1.0 | Preemergence herbicidal rating IPOHE ([6]; rate 0.0156 kg/ha): 0.0 | Preemergence herbicidal rating IPOHE ([6]; rate 0.0313 kg/ha): 0.0 | Preemergence herbicidal rating IPOHE ([6]; rate 0.0625 kg/ha): 0.0 | Preemergence herbicidal rating IPOHE ([6]; rate 0.1250 kg/ha): 4.0 | Preemergence herbicidal rating IPOHE ([6]; rate 0.2500 kg/ha): 9.0 | MOOVA herbicidal effect rating (MOOVA (Monochoria); 0.0313 kg/ha): 9.0 | MOOVA herbicidal effect rating (MOOVA (Monochoria); 0.0625 kg/ha): 9.0 | MOOVA herbicidal effect rating (MOOVA (Monochoria); 0.1250 kg/ha): 9.0 | MOOVA herbicidal effect rating (MOOVA (Monochoria); 0.2500 kg/ha): 9.0
